Measured values as given in patent US20020182207A1, “Methods and compositions for modifying biologically active target molecules” (priority 2000, published 2002).
Blank lines part the entries; values can stand above or below the compound they belong to.

What was measured:
TNFα = TNFα (Homo sapiens, UniProt P01375); experiment: ECL-based assay of TNFα binding to its receptor after incubation with label (sugars, ampicillin)
Experimental: Experiments were conducted to determine whether catalytic antibodies can chemically modify and thereby inactivate disease-associated proteins. First, the reaction of reducing sugars with the disease-associated protein, tumor necrosis factor alpha (TNFα) was examined. In this reaction, the reducing sugar aldehyde covalently reacts with protein lysine sidechains. Chemical modification was detected using an ECL-based binding assay that measures the binding of TNFα to its receptor (an assay of biological function). […] Thus, chemical modification is a viable approach to inactivate proteins. Experiments were conducted to determine whether catalytic antibodies can inactivate disease-associated proteins. First, the reaction of reducing sugars with the disease-associated protein, tumor necrosis factor alpha (TNFα) was examined. In this reaction, the reducing sugar aldehyde covalently reacts with protein lysine sidechains. Chemical modification was detected using an ECL-based immunoassay that measures the binding of TNFα to its receptor. The assay is a sandwich format that uses antibodies directed against TNF and its receptor. One antibody is labeled with biotin, the other with an ECL label (TAG NHS Ester, IGEN International). When the TNF-TNF receptor complex is present, a sandwich complex comprising both a biotin and an ECL label is formed. This sandwich complex is captured on streptavidin-coated magnetic beads and measured using ECL detection. Alternatively, the TNF receptor may be directly biotinylated and the TNF target molecule labeled directly with the ECL label (or visa versa); in this alternative approach, no antibodies are necessary. […] Thus, chemical modification may be used to inactivate proteins. The uncatalyzed reaction between a β-lactam (ampicillin) and two proteins was also examined. Bovine serum albumin (BSA) and ampicillin were reacted overnight. […] Ampicillin was also reacted with TNFα overnight. […] Thus, this reaction is much more facile than the reaction of TNFα with reducing sugars.

[1] = tested on: β-lactamase-producing E. coli (TG1 phage antibody E. coli); experiment: Growth of β-lactamase-producing E. coli on agar plates containing antibiotics; format: cell-based; design: E. coli growth score on agar plate: key to the marks not given beside the values; conditions: for Concentration toxic to β-lactamase-expressing E. coli / Concentration toxic to β-lactamase-expressing E. coli (toxic level): agar plates; for Concentration toxic to β-lactamase-expressing E. coli (toxic level): called IC50 in b119 and b167; for Antibiotic effect on β-lactamase-producing E. coli (in words): at the indicated concentrations of Table 2
Experimental: First, the ability of these candidate cephalosporins to kill the relevant β-lactamase-producing E. coli (TG1 phage antibody E. coli) was tested. […] This is presumably due to β-lactamase-catalyzed inactivation. […] Presumably, neither is inactivated by E. coli β-lactamase. […] More preferably, E. coli should be challenged with approximately 40-45 μM cefoxitin and 0.45-0.50 μM cefotaxime.
Next, the ability of the cephalosporins to kill the relevant β-lactamase-producing E. coli (TG1 phage antibody E. coli) was tested by growing the bacteria on agar plates containing the antibiotics. […] This is presumably due to β-lactamase-catalyzed inactivation. […] Presumably, neither is inactivated by E. coli β-lactamase.
A second experiment was performed in which E. coli was grown on agar plates containing varying amounts of cefotaxime.

[2] = Pseudo-first order NaOH hydrolysis rates by UV spectrometry; format: physicochemical; conditions: 1.0 mM antibiotic, 10.0 mM NaOH, 30.0° C.
Experimental: Further, before choosing either cefoxitin or cefotaxime as the labeling reactant, it was verified that their uncatalyzed reactivity rates were as facile as that of ampicillin. Model reactions were performed comparing the (NaOH) hydrolysis rates of cefoxitin, cefotaxime, and ampicillin. Hydrolysis and acylation are mechanistically identical. Their pseudo-first order hydrolysis rates as measured by UV spectrometry (1.0 mM antibiotic, 10.0 mM NaOH, 30.0° C.) were virtually the same: […]

[3] = first column, head printed 10 g/mL
[4] = second column, head printed 10 g/mL

Sequence of TNFα (P01375 77-233 limits assumed): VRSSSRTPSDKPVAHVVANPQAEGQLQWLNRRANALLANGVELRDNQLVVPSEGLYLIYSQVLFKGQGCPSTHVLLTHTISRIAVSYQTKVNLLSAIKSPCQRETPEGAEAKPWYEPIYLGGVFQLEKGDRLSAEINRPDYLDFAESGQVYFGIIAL

- TNFα receptor binding following incubation with sugar (control buffer = 1.00, arbitrary) (TNFα; incubation time: 7 days): 0.79
- TNFα receptor binding following incubation with sugar (control buffer = 1.00, arbitrary) (TNFα; incubation time: 14 days): 0.67
- TNFα receptor binding following incubation with sugar (control buffer = 1.00, arbitrary) (TNFα; incubation time: None): 1.02
SMILES: O=C(CO)[C@@H](O)[C@H](O)[C@H](O)CO [Fructose]

SMILES: CO/N=C(\C(=O)N[C@@H]1C(=O)N2C(C(=O)O)=C(COC(C)=O)CS[C@H]12)c1csc(N)n1 [Cefotaxime]
- Concentration toxic to β-lactamase-expressing E. coli [1]: ~0.25 µM
- Concentration toxic to β-lactamase-expressing E. coli (toxic level) [1]: ~0.12 µg/mL
- Antibiotic effect on β-lactamase-producing E. coli (in words) [1]: excellent antibiotic effects
- # of E. coli colonies ([1]; cefotaxime concentration 0.04 μg/mL): 225
- # of E. coli colonies ([1]; cefotaxime concentration 0.12 μg/mL): 5
- # of E. coli colonies ([1]; cefotaxime concentration 0.37 μg/mL): 0
- # of E. coli colonies ([1]; cefotaxime concentration 1.11 μg/mL): 0
- Pseudo-first order hydrolysis rate [2]: 0.0041 min⁻¹

SMILES: CC(=O)OCC1=C(C(=O)O)N2C(=O)[C@@H](NC(=O)Cc3cccs3)[C@H]2SC1 [Cephalothin]
- Antibiotic effect on β-lactamase-producing E. coli (in words) [1]: little or no antibiotic effect
- E. coli growth score on agar plate [1, 3]: +++++
- E. coli growth score on agar plate [1, 4]: +++++

SMILES: CC1(C)S[C@@H]2[C@H](NC(=O)[C@H](N)c3ccccc3)C(=O)N2[C@H]1C(=O)O [Ampicillin]
- Loss of TNFα biological activity according to the receptor binding assay (TNFα; reacted with TNFα overnight, uncatalyzed): 16%
- Antibiotic effect on β-lactamase-producing E. coli (in words) [1]: little or no antibiotic effect
- E. coli growth score on agar plate [1, 3]: +++++
- E. coli growth score on agar plate [1, 4]: +++++
- Pseudo-first order hydrolysis rate [2]: 0.00564 min⁻¹

SMILES: N[C@@H](C(=O)N[C@@H]1C(=O)N2C(C(=O)O)=C(Cl)CS[C@H]12)c1ccccc1 [Cefaclor]
- Antibiotic effect on β-lactamase-producing E. coli (in words) [1]: little or no antibiotic effect
- E. coli growth score on agar plate [1, 3]: +++++

SMILES: CO[C@@]1(NC(=O)Cc2cccs2)C(=O)N2C(C(=O)O)=C(COC(N)=O)CS[C@@H]21 [Cefoxitin]
- Concentration toxic to β-lactamase-expressing E. coli [1]: ~22 µM
- Concentration toxic to β-lactamase-expressing E. coli (toxic level) [1]: approximately 10 μg/mL
- Antibiotic effect on β-lactamase-producing E. coli (in words) [1]: excellent antibiotic effects
- Number of E. coli colonies on agar plate [1, 3]: 30 colonies
- Pseudo-first order hydrolysis rate [2]: 0.00438 min⁻¹

- Inactivation of TNFα receptor binding (in words) (TNFα; 2-week incubation period): did not inactivate TNFα
SMILES: OC[C@H]1O[C@@](CO)(O[C@H]2O[C@H](CO)[C@@H](O)[C@H](O)[C@H]2O)[C@@H](O)[C@@H]1O [sucrose]

- TNFα receptor binding following incubation with sugar (control buffer = 1.00, arbitrary) (TNFα; incubation time: 7 days): 0.89
- TNFα receptor binding following incubation with sugar (control buffer = 1.00, arbitrary) (TNFα; incubation time: 14 days): 0.82
- TNFα receptor binding following incubation with sugar (control buffer = 1.00, arbitrary) (TNFα; incubation time: None): 1.00
SMILES: O=C[C@H](O)[C@@H](O)[C@@H](O)[C@H](O)CO [Galactose]
